Data published in article PMC9902378, “Quinate-based ligands for irreversible inactivation of the bacterial virulence factor DHQ1 enzyme—A molecular insight” (Frontiers in Molecular Biosciences, 2023).

Assays:
Sa-DHQ1 [1] = biological target: T1, Sa-DHQ1 (Staphylococcus aureus, UniProt Q6GII7); test: DHQ1 assay, kinetic parameters of the substrate; assay type: biochemical; conditions: PPB 50 mM, pH 7.2, 25°C
T1 construct: made in house
Protocol: (§1) The St-DHQ1 and Sa-DHQ1 enzyme were purified as described previously ([Moore et al., 1993]; [Nichols et al., 2004]). Concentrated solutions of St-DHQ1 (0.85 mg mL^−1, 30.74 µM) and Sa-DHQ1 (4 mg mL^−1, 148.13 µM) were stored in potassium phosphate buffer (PPB) (50 mM) and DTT (1 mM) at pH 6.6 and −80°C. When required for assays, aliquots of the enzyme stocks were diluted in water and buffer and stored on ice. DHQ1 was assayed in the forward direction by monitoring the increase in absorbance at 234 nm in the UV spectrum due to the absorbance for the enone-carboxylate chromophore of 3-dehydroshikimic acid (ε/M^−1 cm^−1 12 000). Standard assay conditions were PPB (50 mM, pH 7.2) at 25°C. Each assay was initiated by addition of the substrate. Solutions of 3-dehydroquinic acid 1) were calibrated by equilibration with DHQ1 and measurement of the change in the UV absorbance at 234 nm due to formation of the enone-carboxylate chromophore of 3-dehydroshikimic acid. […] The program GraFit 7.0.3. (Erithacus Software Ltd.). was used for data fitting.

St-DHQ1 [2] = biological target: T2, St-DHQ1 (Salmonella typhi, UniProt P24670); test: DHQ1 assay, kinetic parameters of the substrate; assay type: biochemical; conditions: PPB 50 mM, pH 7.2, 25°C
T2 construct: made in house
T2 sequence (P24670 1-252): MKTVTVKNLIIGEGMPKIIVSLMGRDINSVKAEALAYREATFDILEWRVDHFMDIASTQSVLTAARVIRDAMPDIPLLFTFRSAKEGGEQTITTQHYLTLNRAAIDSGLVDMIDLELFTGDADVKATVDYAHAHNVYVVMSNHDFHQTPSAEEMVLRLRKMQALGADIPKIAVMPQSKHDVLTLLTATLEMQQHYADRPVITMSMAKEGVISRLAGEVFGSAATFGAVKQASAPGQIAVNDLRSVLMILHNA
Protocol: as §1

[3] = system: Salmonella enterica DHQ1 enzyme; conditions: crystal structure PDB ID 4GUI, 1.78 Å; ref Light et al., 2014; cited from earlier work
Sa-DHQ1 [4] = biological target: T1, Sa-DHQ1; test: Time-dependent irreversible inhibition assay (incubation of enzyme with ligand, residual activity at 234 nm); assay type: biochemical
Protocol: (§2) The inhibitory capacity of compounds 6–8 against DHQ1 enzymes from S. aureus and S. typhi was evaluated. For irreversible inhibition assays, the enzyme was incubated with the ligand and its remaining activity was progressively determined using aliquots from the incubation samples and the control. For reversible competitive inhibition assays, the activity of the enzyme in the presence of increasing amount of ligand was evaluated. The enzyme activity was determined by monitoring the increase in absorbance at 234 nm in the UV spectrum due to formation of the enone-carboxylate chromophore of the enzyme product, 3-dehydroshikimic acid 2).
as §1
(§3) Incubation of Sa-DHQ1 and St-DHQ1 (2.96 µM from a stock protein concentration of […]) with various aqueous solutions of compounds 6–8 (30–4,000 µM) was carried out in PPB (0.5 mL, 50 mM) at pH 7.2 at 25°C. The activity was determined progressively in duplicate over a 3 h period under the standard assay conditions (see above) using aliquots from the incubation samples and the control. Semilogarithmic plots of residual activity as a function of time with a range of inhibitor concentrations [I] were performed to obtain the first-order rate constant, k obs, calculated from the slope, and is related with k inact KI constants by Equation 1 implemented in GraFit ([Plapp, 1982]): kobs=(kinact I) / (KI)+I) (1)

St-DHQ1 [5] = biological target: T2, St-DHQ1; test: as above; assay type: biochemical
Protocol: as §2, §1, §3

St-DHQ1 [6] = biological target: T2, St-DHQ1; test: MALDI mass spectrometry of enzyme incubated with ligand; assay type: binding; conditions: for covalent modification of enzyme (MALDI): similar studies, incubation with ligand
Protocol: The covalent modification of DHQ1 by compound 6 was also corroborated by mass spectrometry analysis of samples incubated with and without ligand.
St-DHQ1 (3.1 µM from a stock protein concentration of 0.85 mg mL^−1) and Sa-DHQ1 (3.0 µM from a stock protein concentration of 4 mg mL^−1) was incubated with various aqueous solutions of ligands 6–8 in PPB (0.5 mL, 50 mM) at pH 7.2, 25°C. The activity was determined progressively over a 24 h period under the standard assay conditions using aliquots from the incubation samples and the control. The activity was measured at a substrate concentration of 14 µM. The initial rate of each assay was measured. The samples were concentrated and washed (5 mM ammonium carbonate) for MALDI analysis by centrifugation at 4 °C using Amicon® centrifugal filters (Amicon Ultra-10). The samples were freeze-dried, diluted with 5 mM ammonium bicarbonate (5 µL) and analyzed by mass spectrometry using a MALDI TOF/TOF Mass Spectrometer (4,800 Analyzer, AbSciex). The ProteoMass™ MALDI calibration kit (Merck) was employed for calibration and sanipic acid as a matrix. Spectra were analyzed using the Data Explorer™ Software. Experiments were performed in triplicate.
Figure S3. MALDI spectra of St-DHQ1 after incubation with 3-hydroxylaminoquinic acid (6) (left) and the control (right). Incubation conditions were potassium phosphate buffer (50 mM, pH 7.0), 25 °C and (1:120) protein/ligand ratio, 24 h. After incubation and for MALDI analysis, the samples were successively washed with 5 mM […] by centrifugation at 4 °C using Amicon® centrifugal filters and concentrated. Sinapic acid was used as a matrix.
(1 picture or pasted object on this page, not shown here)

Sa-DHQ1 [7] = biological target: T1, Sa-DHQ1; test: Reversible competitive inhibition assay (initial rates, IC50); assay type: biochemical; conditions: substrate 14 µM, PPB 50 mM, pH 7.2, 25°C
Protocol: as §2, §1
(§4) IC50 values were determined in duplicate by measuring the initial rates at fixed enzyme and substrate concentrations (14 µM) in the absence and in the presence of various compounds concentrations, which was adjusted to the Equation 2 implemented in GraFit: y=Emax / 1+(IC50 / x)^n (2)
(§5) were y is the observed effect at inhibitor concentration x, Emax corresponds to the maximum effect, IC50 is the concentration at which a 50% […] is obtained, and n is the slope of the curve.

St-DHQ1 [8] = biological target: T2, St-DHQ1; test: as above; assay type: biochemical; conditions: substrate 14 µM, PPB 50 mM, pH 7.2, 25°C
Protocol: as §2, §1, §4, §5

[9] = PPB 50 mM, pH 7.2, 25°C, time-dependent irreversible inhibition

T1 sequence (Q6GII7 whole entry): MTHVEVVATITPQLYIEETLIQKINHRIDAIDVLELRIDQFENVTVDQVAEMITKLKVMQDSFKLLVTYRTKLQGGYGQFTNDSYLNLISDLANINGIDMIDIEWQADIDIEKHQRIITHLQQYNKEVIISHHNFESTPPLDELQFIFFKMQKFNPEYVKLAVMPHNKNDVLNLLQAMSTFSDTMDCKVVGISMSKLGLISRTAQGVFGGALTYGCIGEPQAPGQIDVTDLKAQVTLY

Row | Compound | type of inhibition (Sa-DHQ1 [4]) | type of inhibition (St-DHQ1 [5]) | covalent modification of enzyme (MALDI) (St-DHQ1 [6]) | IC50 (Sa-DHQ1 [7]) | IC50 (St-DHQ1 [8]) | other results
1 | O=C1C[C@@](O)(C(=O)O)C[C@@H](O)[C@@H]1O [3-dehydroquinic acid] |  |  |  |  |  | K m (Sa-DHQ1 [1]): 18 ± 3 µM; k cat (Sa-DHQ1 [1]): 255 ± 12 s⁻¹; K m (St-DHQ1 [2]): 24 ± 3 µM; k cat (St-DHQ1 [2]): 1.1 ± 0.1 s⁻¹
2 | O=C(O)[C@]1(O)C[C@@H](O)[C@@H](O)[C@H](O)C1 [(–)-quinic acid (9), (–)-quinic acid] |  |  |  |  |  | covalent adduct formation with the enzyme [3]: does not form a covalent adduct
3 | O=C(O)[C@@]1(O)C[C@@H](O)[C@H](O)[C@H](NO)C1 [Compound 6, (1S,3R,4R,5R)-1,3,4-trihydroxy-5-hydroxylaminocyclohexane-1-carboxylic acid] | time-dependent irreversible inhibitor | time-dependent irreversible inhibitor |  |  |  | k inact (Sa-DHQ1 [4]; PPB 50 mM, pH 7.2, 25°C): 8 ± 1 ms^−1; Ki (Sa-DHQ1 [4]; [9]): 90 ± 8 µM; k inact (St-DHQ1 [5]; PPB 50 mM, pH 7.2, 25°C): 13 ± 1 ms^−1; Ki (St-DHQ1 [5]; [9]): 130 ± 12 µM; additional mass of covalently modified enzyme (MALDI) (St-DHQ1 [6]; St-DHQ1, ∼1:120 enzyme/ligand ratio, 24 h, 25°C): 158
4 | N[C@@H]1C[C@@](O)(C(=O)O)C[C@@H](O)[C@@H]1O [Compound 7, (1S,3R,4R,5R)-3-amino-1,4,5-trihydroxycyclohexane-1-carboxylic acid] | reversible competitive inhibitors | reversible competitive inhibitors | No modifications | 482 ± 19 µM | 528 ± 33 µM | 
5 | O=C(O)[C@@]1(O)C[C@@H](O)[C@H](O)[C@@H]2O[C@@H]21 [Compound 8, (1S,2R,4R,5S,6S)-2,4,5-trihydroxy-7-oxabicyclo[4.1.0]heptane-2-carboxylic acid] | reversible competitive inhibitors | reversible competitive inhibitors | No modifications | > 2000 µM | > 2000 µM | 
